Test results published in patent US8778871B2 (Takeda Pharmaceutical Company Limited, priority 2004, dated 2014).
Non-standard residues stand in square brackets, D forms with d. Residues, ends and D or L forms follow the SMILES beside them. No end group written: not given here. *: point of attachment. Arg(Me) = CNC(=N)NCCC[C@H](N)C(=O)O; Hydrocinnamoyl = O=C(CCc1ccccc1)*; Bz = O=C(c1ccccc1)*; azaGly = NNC(=O)O

Legend:
hOT7T175 [1] = molecular target: T1, hOT7T175 (Homo sapiens, UniProt Q969F8); assay: Intracellular Ca ion level-increasing activity using FLIPR (180 seconds; specific activity to Metastin (1-54)); format: cell-based; conditions: hOT7T175/CHO, change in intracellular calcium ion level for 180 seconds, Tables 21-23
T1 construct: expressed in transfected cells
T1 sequence (Q969F8 whole entry L364H): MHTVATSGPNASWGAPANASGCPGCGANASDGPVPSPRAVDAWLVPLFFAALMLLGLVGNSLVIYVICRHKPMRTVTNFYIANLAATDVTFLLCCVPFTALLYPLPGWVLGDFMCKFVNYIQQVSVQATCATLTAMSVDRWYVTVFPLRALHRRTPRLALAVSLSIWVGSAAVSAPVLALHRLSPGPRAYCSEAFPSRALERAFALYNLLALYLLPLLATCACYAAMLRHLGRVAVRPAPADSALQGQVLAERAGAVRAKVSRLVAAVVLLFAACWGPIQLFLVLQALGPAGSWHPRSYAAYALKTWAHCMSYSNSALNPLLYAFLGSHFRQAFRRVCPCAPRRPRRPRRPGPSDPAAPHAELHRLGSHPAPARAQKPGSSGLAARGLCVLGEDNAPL

hOT7T175 [2] = molecular target: T2, hOT7T175 (Homo sapiens, UniProt Q969F8, L364H); format: cell-based; conditions: hOT7T175/CHO, FLIPR, evaluation for 40 seconds after initiation of the reaction
T2 construct: expressed in transfected cells
T2 sequence (Q969F8 whole entry L364H): as above
Protocol: The intracellular Ca ion level-increasing activity was measured using FLIPR as in TEST EXAMPLE 2.

[3] = Blood testosterone level decreasing effect in mature male rat (2 mM peptide solution, ALZET osmotic pump); format: in vivo; conditions: 2 mM peptide solution in distilled water, ALZET osmotic pump s.c., 6 days, Tables 28 and 29
Protocol: (§1) This peptide solution was filled in 5 ALZET osmotic pumps (Model 2001, 0.2 ml in volume, release rate: 0.001 ml/hr, DURECT Corporation). The ALZET pumps filled with the peptide solution were implanted subcutaneously in 5 CD(SD)IGS male rats of 9 weeks old after birth (Charles River Japan, Inc.) on the back under ether anesthesia by one pump for one animal. For negative control, distilled water (Otsuka Pharmaceutical Co., Ltd.) was filled in 5 ALZET osmotic pumps, which were similarly implanted in 5 male CD(SD)IGS rats (Charles River Japan, Inc.), respectively. These pump-implanted rats were fed for 6 days under normal feeding conditions. After weighing, the animal was decapitated to collect blood. After 0.03 ml/ml blood of aprotinin solution (Trasylol, Bayer) containing 0.1 mg/ml EDTA.2Na was added to blood, the mixture was centrifuged at 1,800 G for 25 minutes to isolate/recover plasma. From the plasma obtained, 0.05 ml was applied to radioimmunoassay (DPC.Total Testosterone Kit, Diagnostic Products Corporation) to measure the plasma testosterone level of each rat. The value below the limit of measurement (0.04 ng/ml of plasma level) in radioimmunoassay was treated as 0. A mean value of the testosterone levels from 5 rats receiving the peptide was calculated and a relative value (percent) of the mean value to a mean value from 5 rats receiving distilled water.

[4] = Blood testosterone level decreasing effect in mature male rat (0.1 mM peptide solution); format: in vivo
Protocol: as §1
In a manner similar to TEST EXAMPLE 14, evaluation was made using 0.1 mM peptide solution and a part of the results obtained are shown in TABLE 30.

hOT7T175 [5] = molecular target: T2, hOT7T175; assay: Intracellular Ca ion level-increasing activity using FLIPR (180 seconds; specific activity to Metastin (1-54)); format: cell-based; conditions: hOT7T175/CHO, relative to Metastin (1-54) = 1

Compound: 3-Phenylpropionyl-Asn-Ser-Phe-AzaGly-Leu-Arg(Me)-Trp-NH2 [Compound No. 499]
- intracellular Ca ion level-increasing activity [specific activity to Metastin (1-54)] (hOT7T175 [1]): 10
- Specific Act. (EC50/MS10 EC50) (hOT7T175 [2]): 1.4
- Teststerone level in Blood [3]: 2%
- Teststerone level in Blood [4]: 32%

Compound: 4-Pyridinecarbonyl-Phe-AzaGly-Leu-Arg(Me)-Trp-NH2 [Compound No. 436]
- intracellular Ca ion level-increasing activity [specific activity to Metastin (1-54)] (hOT7T175 [1]): 5
- Specific Act. (EC50/MS10 EC50) (hOT7T175 [2]): 1.4
- Teststerone level in Blood [3]: 35%

Compound: CNC(=N)NCCC[C@H](NC(=O)[C@H](CC(C)C)NC(=O)CNC(=O)[C@H](Cc1ccccc1)NC(=O)[C@H](CO)NC(=O)[C@H](CC(N)=O)NC(=O)[C@H](Cc1c[nH]c2ccccc12)NC(=O)[C@H](CC(N)=O)NC(=O)[C@H](N)Cc1ccc(O)cc1)C(=O)N[C@@H](Cc1ccccc1)C(N)=O [Compound No. 141]
- Specific Act. (intracellular Ca ion level-increasing activity, specific activity to Metastin (1-54)) (hOT7T175 [5]): 10
- Specific Act. (EC50/MS10 EC50) (hOT7T175 [2]): 1.6
- Teststerone level in Blood [3]: 31%

Compound: CC(C)C[C@H](NC(=O)NNC(=O)[C@H](Cc1ccccc1)NC(=O)[C@H](CO)NC(=O)[C@H](CC(N)=O)NC(=O)[C@H](Cc1c[nH]c2ccccc12)NC(=O)[C@H](CC(N)=O)NC(=O)[C@@H](N)Cc1ccc(O)cc1)C(=O)N[C@@H](CCCNC(=N)N)C(=O)N[C@@H](Cc1ccccc1)C(N)=O [Compound No. 176, Tyr-Asn-Trp-Asn-Ser-Phe-AzaGly-Leu-Arg-Phe-NH2]
- Specific Act. (intracellular Ca ion level-increasing activity, specific activity to Metastin (1-54)) (hOT7T175 [5]): 5
- Specific Act. (EC50/MS10 EC50) (hOT7T175 [2]): 1.3
- Teststerone level in Blood [3]: 12%

Compound: CNC(=N)NCCC[C@H](NC(=O)[C@H](CC(C)C)NC(=O)NNC(=O)[C@H](Cc1ccccc1)NC(=O)[C@H](CO)NC(=O)[C@H](CC(N)=O)NC(=O)CCc1ccccc1)C(=O)N[C@@H](Cc1ccccc1)C(N)=O [Compound No. 269, 3-Phenylpropionyl-Asn-Ser-Phe-AzaGly-Leu-Arg(Me)-Phe-NH2] (Hydrocinnamoyl-NSF[azaGly]L[Arg(Me)]F-NH2)
- intracellular Ca ion level-increasing activity [specific activity to Metastin (1-54)] (hOT7T175 [1]): 3
- Specific Act. (EC50/MS10 EC50) (hOT7T175 [2]): 3.4
- Teststerone level in Blood [3]: 7%

Compound: Bz-NSF[azaGly]L[Arg(Me)]W-NH2 [Compound No. 509]
- intracellular Ca ion level-increasing activity [specific activity to Metastin (1-54)] (hOT7T175 [1]): 20
- Specific Act. (EC50/MS10 EC50) (hOT7T175 [2]): 2.0
- Teststerone level in Blood [3]: 2%

Compound: D-Tyr-D-Pya(4)-Ala-Ser-Phe-AzaGly-Leu-Arg(Me)-Trp-NH2 [Compound No. 492]
- intracellular Ca ion level-increasing activity [specific activity to Metastin (1-54)] (hOT7T175 [1]): 5
- Specific Act. (EC50/MS10 EC50) (hOT7T175 [2]): 1.1
- Teststerone level in Blood [3]: 65%

Compound: D-Tyr-D-Pya(4)-Asn-Ser-Cha-Gly-Leu-Arg(Me)-Trp-NH2 [Compound No. 496]
- intracellular Ca ion level-increasing activity [specific activity to Metastin (1-54)] (hOT7T175 [1]): 5
- Specific Act. (EC50/MS10 EC50) (hOT7T175 [2]): 0.7
- Teststerone level in Blood [3]: 3%

Compound: D-Tyr-D-Pya(4)-Asn-Ser-Phe-AzaGly-Leu-Arg(Me)-Trp-NH2 [Compound No. 385]
- intracellular Ca ion level-increasing activity [specific activity to Metastin (1-54)] (hOT7T175 [1]): 10
- Specific Act. (EC50/MS10 EC50) (hOT7T175 [2]): 0.7
- Teststerone level in Blood [3]: 2%
- Teststerone level in Blood [4]: 33%

Compound: D-Tyr-D-Pya(4)-Asn-Val-Phe-AzaGly-Leu-Arg(Me)-Trp-NH2 [Compound No. 515]
- intracellular Ca ion level-increasing activity [specific activity to Metastin (1-54)] (hOT7T175 [1]): 10
- Specific Act. (EC50/MS10 EC50) (hOT7T175 [2]): 1.0
- Teststerone level in Blood [3]: 2%

Compound: H-YNWNSFGLRW-NH2 [Compound No. 134]
- Specific Act. (intracellular Ca ion level-increasing activity, specific activity to Metastin (1-54)) (hOT7T175 [5]): 30
- Specific Act. (EC50/MS10 EC50) (hOT7T175 [2]): 0.5
- Teststerone level in Blood [3]: 50%

Compound: [dY][dW]NTF[azaGly]L[Arg(Me)]W-NH2 [Compound No. 512]
- intracellular Ca ion level-increasing activity [specific activity to Metastin (1-54)] (hOT7T175 [1]): 30
- Specific Act. (EC50/MS10 EC50) (hOT7T175 [2]): 0.8
- Teststerone level in Blood [3]: 2%
- Teststerone level in Blood [4]: 38%
